Data: ChEMBL document CHEMBL1201862, “PubChem BioAssay data set” (2004)
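Method: 48-hour compound exposure of cells in 96-well plates, five concentrations, linear interpolation of endpoints. The concentration for 50% growth inhibition is given as GI50.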 Active and inactive are the calls of the source. Rule as the data show it: active = GI50 up to about 1.1 µM and inactive = higher.

Tests used:
Assay in all cases: DTP human tumour cell line panel, 48 h
[1] = test system: NCI-H460
[2] = test system: SF-539
[3] = test system: CAKI-1
[4] = test system: LOX IMVI
[5] = test system: EKVX
[6] = test system: KM12
[7] = test system: PC-3
[8] = test system: SK-MEL-5
[9] = test system: NCI/ADR-RES
[10] = test system: CCRF-CEM
[11] = test system: NCI-H226
[12] = test system: RXF 393
[13] = test system: HT-29
[14] = test system: HL-60
[15] = test system: SK-MEL-28
[16] = test system: OVCAR-3
[17] = test system: OVCAR-8
[18] = test system: NCI-H522
[19] = test system: SW-620
[20] = test system: HCT-116
[21] = test system: OVCAR-5
[22] = test system: BT-549
[23] = test system: MOLT-4
[24] = test system: K562
[25] = test system: SK-OV-3
[26] = test system: HCT-15
[27] = test system: SN12C
[28] = test system: ACHN
[29] = test system: SF-268
[30] = test system: RPMI-8226
[31] = test system: A549
[32] = test system: MDA-MB-435
[33] = test system: UO-31
[34] = test system: UACC-62
[35] = test system: MCF7
[36] = test system: M14
[37] = test system: SNB-19
[38] = test system: SF-295
[39] = test system: HCC 2998
[40] = test system: UACC-257
[41] = test system: NCI-H23
[42] = test system: IGROV-1
[43] = test system: U-251
[44] = test system: HOP-62
[45] = test system: OVCAR-4
[46] = test system: SR
[47] = test system: SK-MEL-2
[48] = test system: COLO 205
[49] = test system: DU-145
[50] = test system: A498
[51] = test system: T47D
[52] = test system: TK-10
[53] = test system: 786-0
[54] = test system: MDA-N
[55] = test system: Malme-3M
[56] = test system: MDA-MB-231
[57] = test system: SNB-75
[58] = test system: HOP-92

Measured: GI50

O=C(Nc1ccc(I)cc1C(=O)NCCO)c1cccs1
inactive: [1] 85.3 µM | [2] > 100 µM | [3] > 100 µM | [4] > 100 µM | [5] > 100 µM | [6] > 100 µM | [7] > 100 µM | [8] > 100 µM | [9] > 100 µM | [10] > 100 µM | [11] > 100 µM | [12] > 100 µM | [13] > 100 µM | [14] > 100 µM | [15] > 100 µM | [16] > 100 µM | [17] > 100 µM | [18] > 100 µM | [19] > 100 µM | [20] > 100 µM | [21] > 100 µM | [22] > 100 µM | [23] > 100 µM | [24] > 100 µM | [25] > 100 µM | [27] > 100 µM | [28] > 100 µM | [29] > 100 µM | [30] 53.5 µM | [31] 82.8 µM | [32] > 100 µM | [33] > 100 µM | [34] > 100 µM | [35] > 100 µM | [36] > 100 µM | [37] > 100 µM | [38] > 100 µM | [39] > 100 µM | [40] > 100 µM | [41] > 100 µM | [42] > 100 µM | [43] > 100 µM | [44] > 100 µM | [45] > 100 µM | [46] 49.7 µM | [47] > 100 µM | [48] > 100 µM
> 100 µM: [26]

Cc1ccc(/N=N/C(=O)NNc2ccc(C)cc2Br)c(Br)c1
20 µM: [26]
inactive: [1] 17.3 µM | [49] 19.9 µM | [3] 24.9 µM | [4] 18 µM | [7] 11.9 µM | [8] 16.9 µM | [10] 2.58 µM | [11] 21.3 µM | [13] 40.9 µM | [14] 18.7 µM | [50] 26.9 µM | [15] 21.4 µM | [16] 19.9 µM | [17] 20.5 µM | [18] 26.1 µM | [19] 32.7 µM | [20] 10.9 µM | [21] 19.4 µM | [22] 27.2 µM | [23] 10.4 µM | [51] 17.8 µM | [24] 16.4 µM | [27] 21.4 µM | [28] 26.7 µM | [29] 25.8 µM | [30] 20 µM | [31] 24.4 µM | [32] 30.5 µM | [33] 16 µM | [52] 31.1 µM | [34] 10.9 µM | [35] 21.8 µM | [36] 24.5 µM | [37] 32.5 µM | [53] 18.4 µM | [39] 16.4 µM | [40] 26.8 µM | [54] 19.3 µM | [55] 19.6 µM | [56] 26.3 µM | [57] 40.8 µM | [41] 24.5 µM | [42] 20.8 µM | [43] 16.1 µM | [44] 19.6 µM | [45] 37.5 µM | [46] 14.7 µM | [47] 16.1 µM

CCN(C(=O)N[C@@H](Cc1ccccc1)C(=O)N[C@@H](CC(C)C)C(=O)OC)c1ccccc1
15.8 µM: [26]
inactive: [1] 12.4 µM | [49] 17.3 µM | [2] 19.5 µM | [3] 32.6 µM | [4] 13.8 µM | [5] 18.7 µM | [6] 29.4 µM | [7] 35.1 µM | [9] 26.5 µM | [10] 19.3 µM | [11] 19.5 µM | [12] 19.1 µM | [13] 14.3 µM | [15] 17.5 µM | [16] 26.5 µM | [17] 15.3 µM | [18] 9.55 µM | [19] 25.4 µM | [20] 20.2 µM | [21] 23.2 µM | [22] 57.1 µM | [23] 15.8 µM | [51] 77.6 µM | [24] 31.3 µM | [25] 40.6 µM | [27] 16 µM | [28] 21.3 µM | [30] 20.1 µM | [31] 30.5 µM | [32] 51.6 µM | [33] 18.1 µM | [52] 33 µM | [34] 17.7 µM | [35] 24 µM | [36] 8.24 µM | [37] 77.6 µM | [38] 26.5 µM | [53] 19.8 µM | [39] 30.8 µM | [40] 23.2 µM | [54] 69.3 µM | [56] 55.7 µM | [58] 22.2 µM | [41] 24 µM | [42] 17 µM | [43] 25.9 µM | [44] 34.4 µM | [45] 28.1 µM | [46] 6.18 µM | [47] 61 µM | [48] 18 µM

O=C(c1ccc(Cl)cc1Cl)N1CCN(C(=O)c2ccc(Cl)cc2Cl)C1=S
inactive: [30] 12.9 µM

COc1ccc(C2(CC(C)C)CCN(S(=O)(=O)c3ccc(C)cc3)C2)cc1OC (configuration not stated)
active: [46] 1.11 µM
inactive: [1] 29.2 µM | [49] 36 µM | [2] 37 µM | [3] > 100 µM | [4] 19.5 µM | [5] 76.9 µM | [6] 23.3 µM | [7] 28.5 µM | [8] 13.6 µM | [9] 18.5 µM | [10] 17.9 µM | [11] 22.5 µM | [12] 34 µM | [13] 35.6 µM | [15] 30.1 µM | [16] 18.9 µM | [18] 25.8 µM | [19] 99.5 µM | [20] 20.2 µM | [21] > 100 µM | [22] 71.1 µM | [23] 2.94 µM | [51] 14.4 µM | [24] 2.88 µM | [25] 36.9 µM | [27] > 100 µM | [28] 36.6 µM | [29] 21.9 µM | [31] 27.2 µM | [32] 21.8 µM | [33] 41.6 µM | [52] 63.5 µM | [34] 43.9 µM | [35] 32.2 µM | [36] 34.8 µM | [37] 49.7 µM | [38] 36.5 µM | [53] 27.8 µM | [39] 27.6 µM | [40] 28.5 µM | [54] 70.8 µM | [56] > 100 µM | [57] 36.9 µM | [41] 29.8 µM | [42] 50.2 µM | [43] 36.2 µM | [44] 45.5 µM | [45] 27.3 µM | [47] 20.7 µM | [48] 25.8 µM
31.7 µM: [26]

CS(=O)(=O)c1ccc2nc(-c3ccc(O)cc3)sc2c1
inactive: [1] 19.4 µM | [49] 15.7 µM | [2] 11 µM | [3] 17.6 µM | [4] 22.1 µM | [5] 10.5 µM | [6] 16 µM | [7] 17.5 µM | [8] 17.4 µM | [9] 13.8 µM | [10] 25.2 µM | [11] 18.5 µM | [12] 16.9 µM | [13] 13.2 µM | [14] 21.2 µM | [50] 16.4 µM | [16] 16.6 µM | [17] 20.5 µM | [18] 13.9 µM | [19] 20.7 µM | [20] 16.8 µM | [21] 17.7 µM | [22] 16.4 µM | [23] 35.6 µM | [24] 33.8 µM | [25] 17.5 µM | [27] 17.5 µM | [28] 17.9 µM | [29] 15.5 µM | [30] 15.7 µM | [31] 16.4 µM | [32] 18 µM | [33] 14.8 µM | [52] 16.3 µM | [34] 17.9 µM | [35] 17.5 µM | [36] 21.6 µM | [37] 17.4 µM | [38] 16.7 µM | [40] 19.6 µM | [54] 17.7 µM | [55] 16.7 µM | [56] 20.6 µM | [41] 19 µM | [42] 19.2 µM | [43] 19 µM | [46] 10.1 µM | [47] 20 µM | [48] 22.2 µM
16.9 µM: [26]
